Laboratory results: US20150197497A1, “SELECTIVE INHIBITORS OF HISTONE DEACETYLASE ISOFORM 6 AND METHODS THEREOF” (DANA-FARBER CANCER INSTITUTE, INC., priority 2011, published 2015)

Experiments:
HDAC4 = biological target: T1, HDAC4 (Homo sapiens, UniProt P56524); test: In vitro HDAC enzyme inhibition assay, HDAC4; type: biochemical; conditions: for HDAC4/HDAC6 in vitro selectivity: ratio of IC50 for HDAC4 relative to that of HDAC6; for IC50: recombinant full-length HDAC4, substrate MAZ1675 10 μM; for selectivity toward HDAC6 compared to HDAC4 (in words): tested in vitro
T1 construct: Recombinant, full-length HDAC protein (BPS Biosciences) was incubated with fluorophore conjugated substrate; purchased BPS Biosciences
T1 sequence (P56524 whole entry): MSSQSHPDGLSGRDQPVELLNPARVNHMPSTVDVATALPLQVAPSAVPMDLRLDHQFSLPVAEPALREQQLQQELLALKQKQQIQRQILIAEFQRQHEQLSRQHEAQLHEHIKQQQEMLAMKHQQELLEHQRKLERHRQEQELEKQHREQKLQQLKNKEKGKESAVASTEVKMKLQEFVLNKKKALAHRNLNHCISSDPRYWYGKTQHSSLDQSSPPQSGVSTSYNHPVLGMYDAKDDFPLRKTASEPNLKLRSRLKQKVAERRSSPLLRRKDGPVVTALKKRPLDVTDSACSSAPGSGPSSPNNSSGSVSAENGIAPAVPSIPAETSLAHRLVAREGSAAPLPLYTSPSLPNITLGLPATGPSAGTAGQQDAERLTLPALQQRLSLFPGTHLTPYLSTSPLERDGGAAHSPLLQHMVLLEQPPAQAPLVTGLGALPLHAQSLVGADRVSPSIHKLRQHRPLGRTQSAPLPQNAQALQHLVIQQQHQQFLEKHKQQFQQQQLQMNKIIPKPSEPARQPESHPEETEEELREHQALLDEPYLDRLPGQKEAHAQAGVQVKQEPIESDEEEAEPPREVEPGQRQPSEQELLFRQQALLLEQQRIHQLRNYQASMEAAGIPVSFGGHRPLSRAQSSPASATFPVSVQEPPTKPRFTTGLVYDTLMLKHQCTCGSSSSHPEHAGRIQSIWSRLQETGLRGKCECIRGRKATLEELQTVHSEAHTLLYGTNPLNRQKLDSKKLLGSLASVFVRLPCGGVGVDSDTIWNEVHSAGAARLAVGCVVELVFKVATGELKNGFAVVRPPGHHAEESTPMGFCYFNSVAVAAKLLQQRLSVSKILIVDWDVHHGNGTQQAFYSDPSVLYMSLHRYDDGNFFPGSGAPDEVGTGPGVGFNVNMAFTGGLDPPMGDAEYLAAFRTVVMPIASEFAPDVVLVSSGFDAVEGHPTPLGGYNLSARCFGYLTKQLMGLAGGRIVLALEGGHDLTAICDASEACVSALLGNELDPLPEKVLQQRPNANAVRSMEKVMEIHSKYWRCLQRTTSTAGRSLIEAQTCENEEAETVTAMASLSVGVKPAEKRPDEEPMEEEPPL
Outline: (§1)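 Deacetylase activity of full-length recombinant HDAC assessed via trypsin-coupled AMC release from substrate at Km concentration, pH 7.4 buffer with TCEP. Kinetic fluorescence slopes were normalized to controls.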

acetylated tubulin = test: High-content image analysis of induction of acetylated tubulin in A549 cells; conditions: for EC50: Homo sapiens, A549, 8 h, read-out: EC50 for half-maximal induction of acetylated tubulin (AcTubulin); for AcHistone/AcTubulin in cell selectivity toward HDAC6: ratio of EC50 acetylated histone to EC50 acetylated tubulin
Description: Cells were treated with each test HDACi compound with an automated pin transfer instrument (Janus, Perkin Elmer) and incubated for 8 hours. […] Fixation solution was aspirated and 90 μL of washing solution (0.1% Triton X-100 in PBS) was added prior to 10 minute incubation at 4° C. Washing solution was aspirated and cells were incubated at 4° C. for about 1 hour in blocking solution (0.1% Triton X-100+2% BSA in PBS). Washing solution was aspirated, and cells were incubated for about 1 hour at 4° C. in primary antibody for acetylated-tubulin (Sigma T7451) and acetylated-histone (Cell Signaling #9441L) at a 1:1000 dilution in blocking solution. Primary antibody solution was aspirated, and cells were washed three times in 90 μL of washing solution. […] Secondary antibody and nuclear staining solution was aspirated and cells were washed three times in 90 μL of washing solution. After the third wash, 50 μL of PBS was added to each well. Image acquisition was done on a high content imaging microscope (ImageXpress Micro, Molecular Devices), and image analysis (MetaXpress, Molecular Devices) was performed to obtain average acetylated-tubulin and acetylated-histone signal per cell based on treatment. Replicate experimental data from incubations with inhibitor were normalized to DMSO controls.

HDAC8 = biological target: T2, HDAC8 (Homo sapiens, UniProt Q9BY41); test: In vitro HDAC enzyme inhibition assay, HDAC8; type: biochemical; conditions: for HDAC8/HDAC6 in vitro selectivity: ratio of IC50 for HDAC8 relative to that of HDAC6; for IC50: recombinant full-length HDAC8, substrate MAZ1675 282 μM
T2 construct: Recombinant, full-length HDAC protein (BPS Biosciences) was incubated with fluorophore conjugated substrate; purchased BPS Biosciences
T2 sequence (Q9BY41 1-377): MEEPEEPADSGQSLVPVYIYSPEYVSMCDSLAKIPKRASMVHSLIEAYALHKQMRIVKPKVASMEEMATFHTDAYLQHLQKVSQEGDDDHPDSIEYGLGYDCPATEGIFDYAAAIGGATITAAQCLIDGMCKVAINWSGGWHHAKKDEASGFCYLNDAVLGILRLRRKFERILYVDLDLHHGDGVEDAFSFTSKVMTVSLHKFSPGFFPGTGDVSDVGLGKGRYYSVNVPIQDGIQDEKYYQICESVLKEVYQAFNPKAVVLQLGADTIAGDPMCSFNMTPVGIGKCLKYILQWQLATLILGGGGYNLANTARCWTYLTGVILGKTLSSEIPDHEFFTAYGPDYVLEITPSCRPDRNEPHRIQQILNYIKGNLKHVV
Outline: as §1

HDAC2 = biological target: T3, HDAC2 (Homo sapiens, UniProt Q92769); test: In vitro HDAC enzyme inhibition assay, HDAC2; type: biochemical; conditions: for HDAC2/HDAC6 in vitro selectivity: ratio of IC50 for HDAC2 relative to that of HDAC6; for IC50: recombinant full-length HDAC2, substrate MAZ1600 22 μM
T3 construct: Recombinant, full-length HDAC protein (BPS Biosciences) was incubated with fluorophore conjugated substrate; purchased BPS Biosciences
T3 sequence (Q92769 whole entry): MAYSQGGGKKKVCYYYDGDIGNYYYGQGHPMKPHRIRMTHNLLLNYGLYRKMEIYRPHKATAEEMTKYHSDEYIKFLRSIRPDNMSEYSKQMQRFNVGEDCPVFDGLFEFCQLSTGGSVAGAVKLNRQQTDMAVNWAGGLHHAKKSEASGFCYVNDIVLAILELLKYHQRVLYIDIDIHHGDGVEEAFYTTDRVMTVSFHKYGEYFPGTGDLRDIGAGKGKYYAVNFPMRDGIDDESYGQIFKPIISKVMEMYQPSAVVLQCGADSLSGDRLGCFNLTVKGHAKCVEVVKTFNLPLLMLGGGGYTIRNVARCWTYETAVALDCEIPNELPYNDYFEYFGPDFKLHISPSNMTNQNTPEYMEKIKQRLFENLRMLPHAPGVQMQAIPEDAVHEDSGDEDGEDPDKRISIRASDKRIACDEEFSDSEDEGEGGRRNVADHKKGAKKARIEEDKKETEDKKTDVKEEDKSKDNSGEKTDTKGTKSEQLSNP
Outline: as §1

HDAC3 = biological target: T4, HDAC3 (Homo sapiens, UniProt O15379); test: In vitro HDAC enzyme inhibition assay, HDAC3; type: biochemical; conditions: for HDAC3/HDAC6 in vitro selectivity: ratio of IC50 for HDAC3 relative to that of HDAC6; for IC50: recombinant full-length HDAC3, substrate MAZ1600 9 μM
T4 construct: Recombinant, full-length HDAC protein (BPS Biosciences) was incubated with fluorophore conjugated substrate; purchased BPS Biosciences
T4 sequence (O15379 whole entry): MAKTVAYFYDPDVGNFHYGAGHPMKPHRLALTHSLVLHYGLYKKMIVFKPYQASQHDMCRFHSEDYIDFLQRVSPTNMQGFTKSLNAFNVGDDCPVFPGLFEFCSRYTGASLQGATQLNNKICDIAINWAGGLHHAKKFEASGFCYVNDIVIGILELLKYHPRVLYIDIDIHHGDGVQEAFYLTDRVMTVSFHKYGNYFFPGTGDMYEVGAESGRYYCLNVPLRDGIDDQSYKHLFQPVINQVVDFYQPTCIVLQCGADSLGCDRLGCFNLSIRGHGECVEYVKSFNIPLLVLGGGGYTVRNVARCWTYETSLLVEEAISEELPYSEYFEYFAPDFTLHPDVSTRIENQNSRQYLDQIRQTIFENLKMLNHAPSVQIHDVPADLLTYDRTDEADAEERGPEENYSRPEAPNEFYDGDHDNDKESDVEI
T4 sequence (Q9Y618 395-489 partner limits assumed): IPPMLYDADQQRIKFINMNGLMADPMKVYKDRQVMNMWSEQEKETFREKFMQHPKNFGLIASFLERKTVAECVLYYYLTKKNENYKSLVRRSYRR
Outline: as §1

acetylated histones = test: High-content image analysis of induction of acetylated histones in A549 cells; conditions: for EC50: Homo sapiens, A549, 8 h, read-out: EC50 for half-maximal induction of acetylated histones (AcHistone)
HDAC9 = biological target: T5, HDAC9 (Homo sapiens, UniProt Q9UKV0); test: In vitro HDAC enzyme inhibition assay, HDAC9; type: biochemical; conditions: for HDAC9/HDAC6 in vitro selectivity: ratio of IC50 for HDAC9 relative to that of HDAC6; for IC50: recombinant full-length HDAC9, substrate MAZ1675 26 μM; for selectivity toward HDAC6 compared to HDAC9 (in words): tested in vitro
T5 construct: Recombinant, full-length HDAC protein (BPS Biosciences) was incubated with fluorophore conjugated substrate; purchased BPS Biosciences
T5 sequence (Q9UKV0 whole entry): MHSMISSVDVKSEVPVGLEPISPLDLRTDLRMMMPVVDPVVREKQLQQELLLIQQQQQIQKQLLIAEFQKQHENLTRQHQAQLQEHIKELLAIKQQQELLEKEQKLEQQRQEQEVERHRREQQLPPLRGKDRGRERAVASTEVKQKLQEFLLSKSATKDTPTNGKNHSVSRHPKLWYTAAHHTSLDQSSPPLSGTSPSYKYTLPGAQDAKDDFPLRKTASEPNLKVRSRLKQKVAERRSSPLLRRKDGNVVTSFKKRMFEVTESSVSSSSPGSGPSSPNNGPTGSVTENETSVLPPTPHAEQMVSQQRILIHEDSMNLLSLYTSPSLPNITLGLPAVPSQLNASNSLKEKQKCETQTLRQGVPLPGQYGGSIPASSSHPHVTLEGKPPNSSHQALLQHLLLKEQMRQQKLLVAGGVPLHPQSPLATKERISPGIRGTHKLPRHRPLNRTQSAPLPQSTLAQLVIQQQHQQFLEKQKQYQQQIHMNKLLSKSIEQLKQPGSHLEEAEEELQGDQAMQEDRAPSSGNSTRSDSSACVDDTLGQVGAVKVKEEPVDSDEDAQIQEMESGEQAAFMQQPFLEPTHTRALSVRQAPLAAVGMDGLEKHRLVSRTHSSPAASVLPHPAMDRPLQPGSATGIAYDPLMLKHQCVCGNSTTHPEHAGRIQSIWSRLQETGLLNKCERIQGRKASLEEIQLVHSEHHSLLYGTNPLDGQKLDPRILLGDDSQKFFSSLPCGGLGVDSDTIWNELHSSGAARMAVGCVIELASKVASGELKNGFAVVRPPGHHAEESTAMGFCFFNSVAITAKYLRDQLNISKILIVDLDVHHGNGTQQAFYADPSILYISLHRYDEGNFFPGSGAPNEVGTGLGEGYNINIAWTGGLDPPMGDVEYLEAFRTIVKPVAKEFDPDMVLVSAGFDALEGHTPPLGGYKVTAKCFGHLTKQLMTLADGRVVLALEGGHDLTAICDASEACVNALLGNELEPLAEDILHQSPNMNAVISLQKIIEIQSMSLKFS
Outline: as §1

HDAC1 = biological target: T6, HDAC1 (Homo sapiens, UniProt Q13547); test: In vitro HDAC enzyme inhibition assay, HDAC1; type: biochemical; conditions: for HDAC1/HDAC6 in vitro selectivity: ratio of IC50 for HDAC1 relative to that of HDAC6; for IC50: recombinant full-length HDAC1, substrate MAZ1600 21 μM
T6 construct: Recombinant, full-length HDAC protein (BPS Biosciences) was incubated with fluorophore conjugated substrate; purchased BPS Biosciences
T6 sequence (Q13547 whole entry): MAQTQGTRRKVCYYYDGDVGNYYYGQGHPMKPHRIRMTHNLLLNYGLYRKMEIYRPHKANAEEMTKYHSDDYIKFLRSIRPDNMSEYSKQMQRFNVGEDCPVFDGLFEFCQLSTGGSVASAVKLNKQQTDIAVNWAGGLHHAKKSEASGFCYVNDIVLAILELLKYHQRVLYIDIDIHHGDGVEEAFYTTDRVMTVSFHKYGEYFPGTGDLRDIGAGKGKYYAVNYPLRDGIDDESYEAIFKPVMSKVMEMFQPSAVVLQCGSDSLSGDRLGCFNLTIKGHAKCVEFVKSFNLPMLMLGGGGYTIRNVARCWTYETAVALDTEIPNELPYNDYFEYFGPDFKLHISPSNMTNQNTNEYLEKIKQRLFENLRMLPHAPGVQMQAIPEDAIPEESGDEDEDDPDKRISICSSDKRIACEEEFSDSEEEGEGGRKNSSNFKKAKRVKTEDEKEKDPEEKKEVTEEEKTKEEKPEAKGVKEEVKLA
Outline: as §1

HDAC5 = biological target: T7, HDAC5 (Homo sapiens, UniProt Q9UQL6); test: In vitro HDAC enzyme inhibition assay, HDAC5; type: biochemical; conditions: for HDAC5/HDAC6 in vitro selectivity: ratio of IC50 for HDAC5 relative to that of HDAC6; for IC50: recombinant full-length HDAC5, substrate MAZ1675 40 μM; for selectivity toward HDAC6 compared to HDAC5 (in words): tested in vitro
T7 construct: Recombinant, full-length HDAC protein (BPS Biosciences) was incubated with fluorophore conjugated substrate; purchased BPS Biosciences
T7 sequence (Q9UQL6 whole entry): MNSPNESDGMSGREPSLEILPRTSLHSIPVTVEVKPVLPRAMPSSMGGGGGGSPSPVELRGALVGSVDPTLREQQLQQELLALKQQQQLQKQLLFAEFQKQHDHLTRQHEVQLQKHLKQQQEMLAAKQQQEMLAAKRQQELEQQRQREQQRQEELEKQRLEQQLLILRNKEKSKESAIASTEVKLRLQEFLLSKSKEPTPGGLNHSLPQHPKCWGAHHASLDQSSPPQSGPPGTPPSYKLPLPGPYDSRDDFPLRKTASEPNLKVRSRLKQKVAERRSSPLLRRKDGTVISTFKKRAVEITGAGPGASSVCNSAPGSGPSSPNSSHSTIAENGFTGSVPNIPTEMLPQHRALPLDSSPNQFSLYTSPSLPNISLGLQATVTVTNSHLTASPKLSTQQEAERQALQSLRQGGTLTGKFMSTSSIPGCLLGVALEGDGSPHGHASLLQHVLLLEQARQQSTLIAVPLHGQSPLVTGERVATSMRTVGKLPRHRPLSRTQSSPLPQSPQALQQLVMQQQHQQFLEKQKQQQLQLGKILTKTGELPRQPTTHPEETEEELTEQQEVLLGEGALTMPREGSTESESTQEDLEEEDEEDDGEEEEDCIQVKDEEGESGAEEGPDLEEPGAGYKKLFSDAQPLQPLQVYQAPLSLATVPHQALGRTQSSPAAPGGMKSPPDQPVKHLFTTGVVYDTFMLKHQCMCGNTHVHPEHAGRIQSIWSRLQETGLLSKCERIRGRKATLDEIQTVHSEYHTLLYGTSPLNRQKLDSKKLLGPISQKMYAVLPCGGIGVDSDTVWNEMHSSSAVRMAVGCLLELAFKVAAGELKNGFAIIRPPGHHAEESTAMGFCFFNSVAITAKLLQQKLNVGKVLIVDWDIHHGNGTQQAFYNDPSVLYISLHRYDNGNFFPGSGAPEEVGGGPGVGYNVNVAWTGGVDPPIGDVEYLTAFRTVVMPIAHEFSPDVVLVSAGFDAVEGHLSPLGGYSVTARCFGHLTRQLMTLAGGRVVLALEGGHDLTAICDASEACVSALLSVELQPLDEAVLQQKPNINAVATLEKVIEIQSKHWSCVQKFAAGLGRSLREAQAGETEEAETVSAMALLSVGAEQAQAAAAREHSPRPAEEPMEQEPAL
Outline: as §1

HDAC7 = biological target: T8, HDAC7 (Homo sapiens, UniProt Q8WUI4); test: In vitro HDAC enzyme inhibition assay, HDAC7; type: biochemical; conditions: for HDAC7/HDAC6 in vitro selectivity: ratio of IC50 for HDAC7 relative to that of HDAC6; for IC50: recombinant full-length HDAC7, substrate MAZ1675 22 μM
T8 construct: Recombinant, full-length HDAC protein (BPS Biosciences) was incubated with fluorophore conjugated substrate; purchased BPS Biosciences
T8 sequence (Q8WUI4 1-952): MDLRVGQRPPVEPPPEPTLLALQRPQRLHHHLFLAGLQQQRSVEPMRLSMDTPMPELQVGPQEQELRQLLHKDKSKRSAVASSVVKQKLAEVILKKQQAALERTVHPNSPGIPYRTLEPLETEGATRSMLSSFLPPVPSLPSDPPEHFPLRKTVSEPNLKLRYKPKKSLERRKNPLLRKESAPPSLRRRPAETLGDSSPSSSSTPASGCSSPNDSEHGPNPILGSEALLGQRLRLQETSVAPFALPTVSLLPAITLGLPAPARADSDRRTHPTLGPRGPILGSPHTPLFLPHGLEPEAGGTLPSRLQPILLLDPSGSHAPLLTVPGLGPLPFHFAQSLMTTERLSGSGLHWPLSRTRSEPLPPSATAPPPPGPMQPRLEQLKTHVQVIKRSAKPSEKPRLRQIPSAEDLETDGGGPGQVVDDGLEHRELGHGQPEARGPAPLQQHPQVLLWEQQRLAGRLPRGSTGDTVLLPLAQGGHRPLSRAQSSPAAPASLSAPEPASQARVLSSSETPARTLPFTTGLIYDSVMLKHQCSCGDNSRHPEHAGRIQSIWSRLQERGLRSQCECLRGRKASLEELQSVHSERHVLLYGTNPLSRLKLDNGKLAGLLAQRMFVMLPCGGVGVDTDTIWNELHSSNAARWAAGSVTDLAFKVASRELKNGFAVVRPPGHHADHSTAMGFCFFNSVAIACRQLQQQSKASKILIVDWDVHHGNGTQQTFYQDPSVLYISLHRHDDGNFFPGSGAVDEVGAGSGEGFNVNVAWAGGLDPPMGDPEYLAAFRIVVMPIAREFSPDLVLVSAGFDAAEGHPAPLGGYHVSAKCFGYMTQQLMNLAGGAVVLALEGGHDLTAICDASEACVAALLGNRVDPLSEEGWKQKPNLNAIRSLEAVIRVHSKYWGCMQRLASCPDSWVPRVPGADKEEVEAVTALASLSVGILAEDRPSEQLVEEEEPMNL
Outline: as §1

Row | Compound | HDAC4/HDAC6 in vitro selectivity (HDAC4) | IC50 (HDAC4) [nM] | selectivity toward HDAC6 compared to HDAC4 (in words) (HDAC4) | EC50 (acetylated tubulin) [nM] | AcHistone/AcTubulin in cell selectivity toward HDAC6 (acetylated tubulin; A549 cells) | HDAC8/HDAC6 in vitro selectivity (HDAC8) | IC50 (HDAC8) [nM] | HDAC2/HDAC6 in vitro selectivity (HDAC2) | IC50 (HDAC2) [nM] | HDAC3/HDAC6 in vitro selectivity (HDAC3) | IC50 (HDAC3) [nM] | EC50 (acetylated histones) [nM] | HDAC9/HDAC6 in vitro selectivity (HDAC9) | IC50 (HDAC9) [nM] | selectivity toward HDAC6 compared to HDAC9 (in words) (HDAC9) | HDAC1/HDAC6 in vitro selectivity (HDAC1) | IC50 (HDAC1) [nM] | HDAC5/HDAC6 in vitro selectivity (HDAC5) | IC50 (HDAC5) [nM] | selectivity toward HDAC6 compared to HDAC5 (in words) (HDAC5) | further results
1 | O=C(NO)c1ccc(Cn2c(=O)[nH]c3cc(Br)ccc32)cc1 [B5, 4-((5-bromo-2-oxo-2,3-dihydro-1H-benzo[d]imidazol-1-yl)methyl)-N-hydroxybenzamide] | 57687 | 1180 | exceptionally high selectivity (Inhibitors with in vitro selectivity values for HDAC6 of at least 30,000 are considered to have exceptionally high selectivity toward HDAC6) | 132 | 6.398 | 12655 | 259 | 444 | 9.09 | 495 | 10.1 | 846 | 39480 | 809 | exceptionally high selectivity (Inhibitors with in vitro selectivity values for HDAC6 of at least 30,000 are considered to have exceptionally high selectivity toward HDAC6) | 508 | 10.4 | 39409 | 808 | exceptionally high selectivity (Inhibitors with in vitro selectivity values for HDAC6 of at least 30,000 are considered to have exceptionally high selectivity toward HDAC6) | HDAC7/HDAC6 in vitro selectivity (HDAC7): 9297; IC50 (HDAC7): 190 nM
2 | O=C(NO)c1ccc(Cn2c(=O)[nH]c3cc(C(F)(F)F)ccc32)cc1 [B6, N-hydroxy-4-((2-oxo-5-(trifluoromethyl)-2,3-dihydro-1H-benzo[d]imidazol-1-yl)methyl)benzamide] | 229041 | 1420 | exceptionally high selectivity (Inhibitors with in vitro selectivity values for HDAC6 of at least 30,000 are considered to have exceptionally high selectivity toward HDAC6) | 48.5 | 12.98 | 48637 | 302 | 1754 | 10.9 | 2366 | 14.7 | ~629 | 114680 | 712 | exceptionally high selectivity (Inhibitors with in vitro selectivity values for HDAC6 of at least 30,000 are considered to have exceptionally high selectivity toward HDAC6) | 1951 | 12.1 | 122813 | 762 | exceptionally high selectivity (Inhibitors with in vitro selectivity values for HDAC6 of at least 30,000 are considered to have exceptionally high selectivity toward HDAC6) | levels of acetylated tubulin, dose response (in words) (acetylated tubulin; A549 cells, FIG. 11): dose-dependent increase; levels of acetylated histone, dose response (in words) (acetylated histones; A549 cells, FIG. 11): absence of the dose-dependent response; HDAC7/HDAC6 in vitro selectivity (HDAC7): 38222; IC50 (HDAC7): 237 nM
3 | COc1ccc2c(c1)[nH]c(=O)n2Cc1ccc(C(=O)NO)cc1 [B7, N-hydroxy-4-((5-methoxy-2-oxo-2,3-dihydro-1H-benzo[d]imidazol-1-yl)methyl)benzamide] | 60006 | 1540 | exceptionally high selectivity (Inhibitors with in vitro selectivity values for HDAC6 of at least 30,000 are considered to have exceptionally high selectivity toward HDAC6) | 154 | 10.013 | 21403 | 551 | 991 | 25.5 | 1236 | 31.8 | 1540 | 47920 | 1230 | exceptionally high selectivity (Inhibitors with in vitro selectivity values for HDAC6 of at least 30,000 are considered to have exceptionally high selectivity toward HDAC6) | 1224 | 31.5 | 57925 | 1490 | exceptionally high selectivity (Inhibitors with in vitro selectivity values for HDAC6 of at least 30,000 are considered to have exceptionally high selectivity toward HDAC6) | HDAC7/HDAC6 in vitro selectivity (HDAC7): 15934; IC50 (HDAC7): 410 nM
